Non-standard residues stand in square brackets, D forms with d. Residues, ends and D or L forms follow the SMILES beside them. No end group written: not given here. Ahx = NCCCCCC(=O)O
Tests used:
[1] = system: C57Bl6 mice, myocardial ischemia-reperfusion; assay: Myocardial ischemia-reperfusion IR24h (40 min ischemia, 24 h reperfusion); format: in vivo, mouse; details: reperfusion prolonged from 1 hour to 24 hours
Protocol: FIG. 11: In vivo experimental protocol. C57Bl6 mice underwent a surgical protocol of myocardial ischemia-reperfusion (IR). The black box represents the period of ischemia to which the mice were submitted. Infarct size or cell death measurements were performed at the end of surgery for each protocol (indicated by ↑). IR60′: 40 minutes of Ischemia, 60 minutes of Reperfusion. IR24h: 40 minutes Ischemia and 24 hours Reperfusion.
FIG. 14: Cardioprotective effects of Tat-DAXXp (1 mg/kg-IV) in mice subjected to IR24h. Infarct size (in % of area at risk) and internucleosomal DNA fragmentation determined by ELISA were quantified in mice subjected to IR24H and treated with Tat, Tat-DAXXp or Tat-scrDAXXp (1 mg/kg) as well as with DAXXp (10 mg/kg) (IV injection 5 minutes before reperfusion). […]
FIG. 15: Dose response for Tat-DAXXp and DAXXp in mice subjected to IR24h. Area at risk and infarct size (in % of area at risk) were measured in mice subjected to IR24h and treated by Tat (1 mg/kg), Tat-DAXXp (0.1, 1 and 10 mg/kg) or DAXXp (0.1, 1 and 10 mg/kg) injected intravenously 5 minutes before reperfusion. […]
In a second step, the cardioprotective effects of DAXXp were evaluated in an in vivo model of myocardial ischemia-reperfusion. […]

H9c2 cells = assay: STS-induced DNA fragmentation (Cell Death detection ELISA PLUS) in H9c2 cells; format: cell-based, rat; details: rat H9c2 (model for cardiac cells); FIG. 5C
Protocol: FIG. 5: In vitro evaluation of the anti-apoptotic activity of CPPs and CPP-conjugates. Workflow and quantitation of DNA fragmentation in (A) C2C12 cells, (B) primary cardiomyocytes, (C) H9c2 cells and (D) NG108-15 cells. Data were normalized to 100% STS. Data shown are the means±SEM, with n≧5. Cells were seeded in 24-well plates and grown overnight. The next day, the cells were incubated with STS alone or with STS+1 μM peptide (in OPTI-MEM) (OPTI-MEM® is a modification of Eagle's Minimum Essential Media, buffered with HEPES and sodium bicarbonate, and supplemented with hypoxanthine, thymidine, sodium pyruvate, L-glutamine, trace elements, and growth factors) (STS concentration and incubation time for each cells are given in the figure). Thereafter, solutions were removed, replaced by complete medium and further incubated for 40 h. Following the regeneration phase, the cells were lyzed and DNA fragmentation was detected according to manufacturer's instructions (Cell Death detection ELISA^PLUS kit—Roche Diagnostics). […]
Thereafter, the capacity of these peptides to inhibit apoptosis induced by staurosporine was evaluated. Apoptosis was determined using the Cell Death detection ELISA^PLUS kit (Roche) measuring the DNA fragmentation.
The anti-apoptotic effects of the peptides were also analyzed in murine NG118-15 (model for neuronal cells) (FIG. 5D), in murine C2C12 (model for muscle cells) (FIG. 5A) and in rat H9c2 (model for cardiac cells) (FIG. 5C). The highest reduction in DNA fragmentation were observed using Bpep-DAXXp in NG118-15 (66% reduction) using Tat-DAXXp in C2C12 (24% reduction) and Pip2b-DAXXp in H9c2 (31% reduction).

GRKKRRQRRRPPQKKSRKEKKQTGSGPLG-NH2 [Tat-DAXXp, GRKKRRQRRRPPQ-KKSRKEKKQTGSGPLG-NH2]
cardioprotective effects at prolonged reperfusion [1]: maintained

CC[C@H](C)[C@H](NC(=O)[C@H](Cc1c[nH]cn1)NC(=O)[C@@H](NC(=O)[C@H](CCCNC(=N)N)NC(=O)CCCCCNC(=O)[C@H](CCCNC(=N)N)NC(=O)[C@H](CCCNC(=N)N)NC(=O)CCCCCNC(=O)[C@H](CCCNC(=N)N)NC(=O)[C@H](CCCNC(=N)N)NC(=O)CCCCCNC(=O)[C@@H](N)CCCNC(=N)N)[C@@H](C)CC)C(=O)N[C@@H](CC(C)C)C(=O)N[C@@H](Cc1ccccc1)C(=O)N[C@@H](CCC(N)=O)C(=O)N[C@@H](CC(N)=O)C(=O)N[C@H](CCCNC(=N)N)C(=O)N[C@@H](CCCNC(=N)N)C(=O)N[C@@H](CCSC)C(=O)N[C@@H](CCCCN)C(=O)N[C@@H](Cc1c[nH]c2ccccc12)C(=O)N[C@@H](Cc1c[nH]cn1)C(=O)N[C@@H](CCCCN)C(=O)N[C@@H](CCCCN)C(=O)N[C@@H](CCCCN)C(=O)N[C@@H](CO)C(=O)N[C@@H](CCCNC(=N)N)C(=O)N[C@@H](CCCCN)C(=O)N[C@@H](CCC(=O)O)C(=O)N[C@@H](CCCCN)C(=O)N[C@@H](CCCCN)C(=O)N[C@@H](CCC(N)=O)C(=O)N[C@H](C(=O)NCC(=O)N[C@@H](CO)C(=O)NCC(=O)N1CCC[C@H]1C(=O)N[C@@H](CC(C)C)C(=O)NCC(N)=O)[C@@H](C)O [Pip2b-DAXXp, (RXR)3-IHILFQNrRMKWHK-KKSRKEKKQTGSGPLG-NH2] (H-R[Ahx]RR[Ahx]RR[Ahx]RIHILFQN[dR]RMKWHKKKSRKEKKQTGSGPLG-NH2; N-terminus assumed)
reduction in DNA fragmentation (H9c2 cells): 31%

Source: patent US9814758B2, “Inhibitors of apoptosis and uses thereof” (CENTRE NATIONAL DE LA RECHERCHE SCIENTIFIQUE-CNRS, priority 2010, dated 2017)
